In one experiment the target is CRM1 (Homo sapiens, UniProt O14980). As to the kind of experiment: Competition differential bleaching assay monitored by microscale thermophoresis instrument (MBP-NES vs FITC-PKI^NES). It is filed as binding. Particulars: brackets = 68.3% confidence interval. The source says: To first investigate whether features of the sequence such as spacings between hydrophobic residues and placement of the ΦXΦ motif are critical in determining directionality of NES binding, we reversed the sequence of the hRio2^NES ([…]) to generate hRio2^NES-R ([…]). We also reversed CPEB4^NES ([…]) to generate CPEB4^NES-R ([…]). Both reversed peptides match the class 1a NES pattern and were predicted to bind CRM1 like the PKI^NES, which is another class 1a NES. Binding affinities of NES peptides to CRM1 were measured in competition differential bleaching experiments using FITC-PKI^NES as a fluorescent probe, MBP-NESs as competitors and monitored with a microscale thermophoresis instrument (Figure 4, Figure 4—figure supplement 1). Wild-type NESs MBP-hRio2^NES and MBP-CPEB4^NES bind CRM1 with KDs of 2200 nM [1600,2900] and 590 nM [400,840], respectively (Figure 4B). The ranges in brackets represent the 68.3% confidence intervals as calculated using F-statistics and error-surface projection method ([Bevington and Robinson, 1992]). […] All of the NES peptides were also cloned into EYFP-NLS-NES fusions and tested for nuclear export activity in HeLa cells.
Differential bleaching was used as a parameter to monitor binding of MBP-NES proteins to CRM1. In short, we observed that the fluorophore reporter attached to PKI^NES (FITC) underwent a reproducible time-dependent bleaching when exposed to excitation light (Figure 4—figure supplement 2). Furthermore, this phenomenon was concentration-dependent, that is, the bleaching was accelerated when the FITC-PKI^NES probe was exposed to increasing concentrations of CRM1. […] The differential bleaching can be counteracted by titrating of mixture of FITC-PKI^NES and CRM1 with a known competitor, MBP-PKI^NES, which competes directly with the fluorescent probe for the NES binding groove in CRM1. A sigmoidal appearance of the binding and competition isotherms is observed when differential bleaching, quantified as the average fluorescence at a time after bleaching normalized by the averaged fluorescence just after the beginning of bleaching, is plotted vs titrant concentration in a semilog graph (see Figure 4).This illustrates that this bleaching behavior can be described as a two-state system where unbound probe and CRM1-bound probe bleach at different but specific rates, and that these quantities report on the populations of bound and unbound FITC-PKI^NES. A detailed description of the data-fitting procedures will be described in manuscript in preparation by C.A.B. For error reporting, we used F-statistics and error-surface projection method to calculate the 68.3% confidence intervals of the fitted data ([Bevington and Robinson, 1992]). While error reporting using the error surface projection method is relatively uncommon, the ranges more accurately represent the true confidence intervals given the observed noise in the performed set of experiments because they explicitly account for the ability of the fitting algorithm to compensate for fitting defects by modifying correlated parameters. Thus, they provide better evaluation of the fitted data than other, more commonly used methods (e.g., error estimations from the parametric variance-covariance matrix).
All proteins used were subjected to an extra gel filtration step and dialysis overnight in TB buffer with 15% glycerol to remove possible aggregation and ensures buffer matching. The FITC-PKI^NES peptide (FITC-[…]) was chemically synthesized by GenScript, NJ and dissolved in the TB buffer with 15% glycerol. For the direct titration, ^HsCRM1 was serially diluted from 40 μM to 1.2 nM and incubated with mixture of 120 μM ^ScRan-GTP and 40 nM FITC-PKI^NES in 1:1 vol to a total volume of 20 μl, and incubated for 1 hr in the dark at room temperature. […]
A general note: In MST a laser heats a spot of the sample, and binding alters the fluorescence response.

The subject of another experiment is human CRM1. The experiment is described as follows: In vitro CRM1-NES pull-down binding assay (immobilized GST-NES). Particulars: immobilized GST-PKI^NES mutants, purified CRM1 and RanGTP; 2.5 μM HsCRM1, 7.5 μM ScRanGTP, 30 min 4°C; Coomassie-stained SDS/PAGE. Here is the method:
After affinity purification, ^ScRan was loaded with GTP (incubated with molar excess of ethylenediaminetetraacetic acid (EDTA) for 30 min on ice followed by incubation with excess GTP and MgOAC for 30 min at room temperature) and then purified by ion exchange chromatography (HiTrap SP, GE Healthcare Life Sciences). NESs were cloned into the pGEX-TEV vector ([Chook and Blobel, 1999]), purified, and immobilized on glutathione Sepharose beads (GE Healthcare Life Sciences) in TB buffer described above containing 15% glycerol. 2.5 μM ^HsCRM1 and 7.5 μM ^ScRanGTP were added to ∼10 μg of immobilized GST-NESs in TB buffer in total volumes of 200 μl for 30 min at 4°C. Unbound proteins were washed extensively with TB buffer and bound proteins on the Sepharose beads were separated by sodium dodecyl sulfate polyacrylamide gel electrophoresis (SDS/PAGE) and visualized with Coomassie Blue staining. All binding assays were performed in triplicates. To compare the relative intensities of CRM1 bands to yield an estimate of binding activities of various NES mutants, SDS/PAGE gels were dried and scanned with an Epson V300 scanner and the images analyzed with ImageJ software. CRM1 band intensities were corrected for differences in GST-NESs band intensities and normalized to wild-type control intensity in each set of mutations. Corrected relative CRM1 band intensities were plotted as histograms with standard errors with GraphPad Prism.
To test putative minus NESs identified from the Dbase data set, 5 μM ^HsCRM1 with or without 15 μM ^ScRanGTP were used instead. Putative NESs that show no CRM1 binding were expressed in larger scale and purified by size-exclusion chromatography to assess their aggregation states. They were also subjected to intact mass determination by mass spectroscopy to ensure that the GST-NES proteins were not degraded.

[1] abbreviates: Figure 4—figure supplement 1, shorter hRio2^NES (without C-terminal lysine and glycine) and CPEB4^NES (without C-terminal methionine and arginine) constructs, competition differential bleaching as E1, read-out: KD of shorter NES constructs binding to CRM1.
[2] abbreviates: competition titration, MBP-NES 100 μM to 3 nM, 40 nM FITC-PKI^NES probe, 300 nM HsCRM1, 120 μM ScRan-GTP, mixed 1:1, TB buffer 15% glycerol, 0.05% Tween-20, 1.5 hr room temperature, triplicate titrations, read-out: KD (dissociation constant of NES binding to CRM1).

Read-outs that look alike come from different tables or passages of the source.

CRM1, sequence (O14980 whole entry, other chains not shown): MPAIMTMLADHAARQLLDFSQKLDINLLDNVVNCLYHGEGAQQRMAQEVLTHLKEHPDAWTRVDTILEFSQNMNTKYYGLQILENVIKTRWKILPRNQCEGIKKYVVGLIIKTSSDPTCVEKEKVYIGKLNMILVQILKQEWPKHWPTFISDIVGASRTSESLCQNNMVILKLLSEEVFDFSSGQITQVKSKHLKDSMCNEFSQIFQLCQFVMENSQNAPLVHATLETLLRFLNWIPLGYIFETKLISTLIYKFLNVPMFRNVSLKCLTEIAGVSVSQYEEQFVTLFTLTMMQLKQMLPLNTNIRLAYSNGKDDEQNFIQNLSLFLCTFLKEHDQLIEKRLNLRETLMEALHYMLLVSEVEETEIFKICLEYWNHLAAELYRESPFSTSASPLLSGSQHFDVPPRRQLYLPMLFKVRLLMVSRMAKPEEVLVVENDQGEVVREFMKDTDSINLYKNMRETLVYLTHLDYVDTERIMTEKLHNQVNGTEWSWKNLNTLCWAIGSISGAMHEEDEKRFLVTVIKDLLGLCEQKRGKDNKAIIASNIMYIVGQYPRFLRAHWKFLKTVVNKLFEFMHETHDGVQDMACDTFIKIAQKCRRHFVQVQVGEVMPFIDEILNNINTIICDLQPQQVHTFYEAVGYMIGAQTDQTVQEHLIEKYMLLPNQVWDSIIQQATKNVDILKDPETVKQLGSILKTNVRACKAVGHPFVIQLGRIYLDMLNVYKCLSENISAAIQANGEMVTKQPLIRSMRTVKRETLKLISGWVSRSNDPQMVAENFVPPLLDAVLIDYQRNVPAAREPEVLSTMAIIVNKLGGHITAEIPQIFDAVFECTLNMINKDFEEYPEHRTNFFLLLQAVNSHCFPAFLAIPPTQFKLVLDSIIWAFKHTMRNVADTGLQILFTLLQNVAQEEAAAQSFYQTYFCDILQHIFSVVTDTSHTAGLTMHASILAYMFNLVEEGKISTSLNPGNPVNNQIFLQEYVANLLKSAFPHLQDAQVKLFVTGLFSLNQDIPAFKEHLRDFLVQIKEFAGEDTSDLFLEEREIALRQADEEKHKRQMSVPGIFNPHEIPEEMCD

For “GGSY^389RSFEMTEFNQALEEI^403 [hRio2^NES, nuclear export signal of hRio2 (residues 389-403), tested as MBP- or GST-fusion]”, the Kd on CRM1 (setting [1]) is 1400 nM; on CRM1 (setting [2]), 2200 nM. Turning to “GGSYRSFDMNELALKLAGLD [PKI^NES-Flip3, PKI^NES-Flip mutant with N-terminal FDM, GST-fusion]”, in the experiment with human CRM1, the “CRM1 binding in pull-down assay” value is “graded increases in CRM1 binding”. On the same count and under the same terms, in the case of “IDLNELALKLAGL [PKI^NES-Flip1, PKI^NES with inverted LDI at the N-terminus, GST-fusion]” it was “does not interact with CRM1”. For the substance GGSYRMIDILSSELSHMDFTR [CPEB4^NES-R], the Kd on CRM1 (setting [2]) amounted to 780 nM.

As to GGSYGKIEELAQNFETMEFSR [hRio2^NES-R], the dissociation constant (Kd) at CRM1 (setting [2]) came out at 2400 nM. In the case of “FDLNELALKLAGL [PKI^NES-Flip2, PKI^NES-Flip mutant with N-terminal FDL, GST-fusion]”, in the experiment with human CRM1, the “CRM1 binding in pull-down assay” value is listed as “graded increases in CRM1 binding”. Turning to “GGSY^379RTFDMHSLESSLIDI^393 [CPEB4^NES, nuclear export signal of CPEB4 (residues 379-393), tested as MBP- or GST-fusion]”, the Kd amounted to 1600 nM on CRM1 (setting [1]) and 590 nM at CRM1 (setting [2]).

Broadly, the Kd is the concentration at which binding is half-saturated.

For the origin of these results see paper PMC4596688, “Structural determinants of nuclear export signal orientation in binding to exportin CRM1” (eLife, 2015).
